# Several values for one entry are separate records, joined by “and”; a condition that tells them apart may be missing. Equal entries are not always repeated. Where two headings read alike, the source gives them in different places.
# Experiments:
# Format in all cases: cell-based
# [1] = target: T1, human muscarinic acetylcholine M1 receptor (M1R) (Homo sapiens, UniProt P11229); test: Ca2+ mobilization counter-screen in M1R-CHOk1 cells
# T1 sequence (P11229 1-460): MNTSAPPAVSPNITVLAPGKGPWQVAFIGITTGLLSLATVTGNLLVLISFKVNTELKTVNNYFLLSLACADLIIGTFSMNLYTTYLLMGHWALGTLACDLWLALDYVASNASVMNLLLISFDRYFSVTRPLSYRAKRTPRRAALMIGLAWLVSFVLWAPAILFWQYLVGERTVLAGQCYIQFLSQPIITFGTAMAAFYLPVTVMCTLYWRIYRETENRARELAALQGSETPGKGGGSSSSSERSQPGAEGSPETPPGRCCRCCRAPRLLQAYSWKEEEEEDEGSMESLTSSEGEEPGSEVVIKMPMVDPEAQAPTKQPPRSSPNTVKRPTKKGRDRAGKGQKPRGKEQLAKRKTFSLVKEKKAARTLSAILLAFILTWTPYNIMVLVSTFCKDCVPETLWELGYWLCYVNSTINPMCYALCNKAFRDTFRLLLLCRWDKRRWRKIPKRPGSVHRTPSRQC
# Method in brief: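 Stable M1R-CHOk1 line; Fluo-4 AM 2 µM, 1 h, 37 °C; HEPES-buffered HBSS pH 7.4 + 1 mM MgCl2/CaCl2 + 2.5 mM probenecid; 10 min equilibration; compound injected post-baseline; ex 485/em 525, 37 °C; DMSO ≤0.3%.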
# GPR139 [2] = target: T2, GPR139 (Homo sapiens, UniProt Q6DWJ6); test: Ca2+ mobilization assay, antagonist mode (EC80 800 nM Lundbeck Cmp 1a after 20 min preincubation), GPR139-CHOk1
# T2 sequence (Q6DWJ6 1-353): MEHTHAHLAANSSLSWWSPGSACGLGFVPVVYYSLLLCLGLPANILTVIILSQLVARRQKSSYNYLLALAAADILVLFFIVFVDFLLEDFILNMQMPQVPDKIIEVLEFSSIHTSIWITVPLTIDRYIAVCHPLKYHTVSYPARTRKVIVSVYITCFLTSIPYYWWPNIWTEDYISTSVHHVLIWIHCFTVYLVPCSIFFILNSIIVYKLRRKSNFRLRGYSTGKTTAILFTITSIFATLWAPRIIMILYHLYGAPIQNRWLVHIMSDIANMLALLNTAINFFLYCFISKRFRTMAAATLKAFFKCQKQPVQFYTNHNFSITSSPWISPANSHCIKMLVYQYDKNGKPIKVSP
# Method in brief: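 Fluo-4-loaded GPR139-CHOk1 cells in HEPES-buffered HBSS (pH 7.4, 2.5 mM probenecid) given test compounds at 10 µM, then after 20 min challenged with 800 nM Lundbeck Cmp 1a (EC80). Calcium fluorescence read at 37 °C, 485/525 nm.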
# GPR139 [3] = target: T2, GPR139; test: Ca2+ mobilization assay, agonist mode, stable GPR139-CHOk1 cell line; settings: for Emax: normalized to Lundbeck Cmp 1a, read-out: Emax (%) Ca2+
# Method in brief: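 Agonist activity of compounds is assessed in stably transfected CHO-K1 cells using the calcium dye Fluo-4 at 37 °C in HEPES-buffered HBSS (pH 7.4). Efficacy is expressed relative to the reference agonist Lundbeck Cmp 1a, set as 100%.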
# [4] = individual replicates (Supplementary Figure 5)
# [5] = individual replicates (Supplementary Figure 4)
# [6] = Agonist mode, individual replicates (Supplementary Figure 4)
# [7] = Supplementary Table 2, mean ± SEM
# [8] = log [Compound] M = -4.5, individual replicate columns
# [9] = log [Compound] M = -5.0, individual replicate columns
# [10] = log [Compound] M = -5.5, individual replicate columns
# [11] = log [Compound] M = -6.0, individual replicate columns
# [12] = log [Compound] M = -6.5, individual replicate columns
# [13] = log [Compound] M = -7.0, individual replicate columns
# [14] = log [Compound] M = -7.5, individual replicate columns
# [15] = log [Compound] M = -8.0, individual replicate columns
# [16] = log [Compound] M = -8.5, individual replicate columns
# [17] = log [Compound] M = -9.0, individual replicate columns
Emax (GPR139 [3]; [7]) [%],Compound,"Ca2+ signal (% of Carbachol) [1, 4]",Ca2+ signal (% of Cmp 1a) (GPR139 [2]; [5]),Ca2+ signal (% of Cmp 1a) (GPR139 [3]; [6]),Ca2+ signal (% of Cmp 1a) (GPR139 [3]; [8]),Ca2+ signal (% of Cmp 1a) (GPR139 [3]; [9]),Ca2+ signal (% of Cmp 1a) (GPR139 [3]; [10]),Ca2+ signal (% of Cmp 1a) (GPR139 [3]; [11]),Ca2+ signal (% of Cmp 1a) (GPR139 [3]; [12]),Ca2+ signal (% of Cmp 1a) (GPR139 [3]; [13]),Ca2+ signal (% of Cmp 1a) (GPR139 [3]; [14]),Ca2+ signal (% of Cmp 1a) (GPR139 [3]; [15]),Ca2+ signal (% of Cmp 1a) (GPR139 [3]; [16]),Ca2+ signal (% of Cmp 1a) (GPR139 [3]; [17]),other results
111 ± 5,"COc1cccc(-c2nc(CC(=O)NC(C)c3ccccc3)no2)c1 (stereo not drawn) [Compound 1.10, COC1=CC(C2=NC(CC(NC(C3=CC=CC=C3)C)=O)=NO2)=CC=C1]",12 % of Carbachol and -9 % of Carbachol and 13 % of Carbachol,0.667 % of Cmp 1a and -2.67 % of Cmp 1a and -13 % of Cmp 1a,119 % of Cmp 1a and 102 % of Cmp 1a and 114 % of Cmp 1a,112 % of Cmp 1a and 110 % of Cmp 1a and 101 % of Cmp 1a,114 % of Cmp 1a (2×) and 92 % of Cmp 1a,118 % of Cmp 1a and 113 % of Cmp 1a and 104 % of Cmp 1a,92 % of Cmp 1a and 83 % of Cmp 1a and 79 % of Cmp 1a,70 % of Cmp 1a and 58 % of Cmp 1a and 60 % of Cmp 1a,51 % of Cmp 1a and 30 % of Cmp 1a and 40 % of Cmp 1a,20 % of Cmp 1a and 5.67 % of Cmp 1a and 19 % of Cmp 1a,10 % of Cmp 1a and -8 % of Cmp 1a and 0.333 % of Cmp 1a,11 % of Cmp 1a and -17 % of Cmp 1a and 4 % of Cmp 1a,16 % of Cmp 1a and -3 % of Cmp 1a and 6.33 % of Cmp 1a,"EC50 (GPR139 [3]; GPR139-CHOk1, read-out: EC50, Ca2+ mobilization): 0.2 µM"
–,"C[C@H](NC(=O)CN(CC1CC1)C(=O)OC(C)(C)C)c1ccccc1 [Compound 10, C[C@H](NC(=O)CN(CC1CC1)C(=O)OC(C)(C)C)C=2C=CC=CC2]",–,–,–,–,–,–,–,–,–,–,–,–,–,"Ca2+ signal (% of Carbachol) ([1]; individual replicates (Supplementary Figure 2)): 3.79 % of Carbachol and -10 % of Carbachol; Ca2+ signal (% of Cmp 1a) (GPR139 [2]; individual replicates (Supplementary Figure 1)): 34.852 % of Cmp 1a and 42.0733 % of Cmp 1a and 46.5676 % of Cmp 1a; Ca2+ signal (% of Cmp 1a) (GPR139 [3]; 0.1 µM, individual replicates (Supplementary Figure 3)): -1.5 % of Cmp 1a and 11.5 % of Cmp 1a; Ca2+ signal (% of Cmp 1a) (GPR139 [3]; 1 µM, individual replicates (Supplementary Figure 3)): 2.4 % of Cmp 1a and 6.6 % of Cmp 1a; Ca2+ signal (% of Cmp 1a) (GPR139 [3]; 10 µM, individual replicates (Supplementary Figure 3)): 39.5 % of Cmp 1a and 47.6 % of Cmp 1a; activation of GPR139 at three concentrations (GPR139 [3]; 0.1, 1 and 10 µM, activity too low to reliably determine EC50): concentration-dependent activation of GPR139; Ca2+ signal (% of Cmp 1a) (GPR139 [3]; Agonist mode, individual replicates (Supplementary Figure 1)): 58 % of Cmp 1a and 64 % of Cmp 1a and 72 % of Cmp 1a; Ca2+ signal (% of Cmp 1a) (GPR139 [3]; primary screen, 10 µM compound, agonist mode, three columns = independent experiments): 58 % of Cmp 1a and 64 % of Cmp 1a and 72 % of Cmp 1a"
90 ± 6,"Cc1ncc(-c2nc(CC(=O)NC(C)c3ccccc3)no2)s1 (stereo not drawn) [Compound 1.34, CC(C1=CC=CC=C1)NC(CC2=NOC(C3=CN=C(S3)C)=N2)=O]",0.0525 % of Carbachol and -0.37 % of Carbachol and -1 % of Carbachol,33 % of Cmp 1a and 16 % of Cmp 1a and 43 % of Cmp 1a,81 % of Cmp 1a and 51 % of Cmp 1a,108 % of Cmp 1a and 98 % of Cmp 1a and 84 % of Cmp 1a and 88 % of Cmp 1a,66 % of Cmp 1a and 94 % of Cmp 1a and 68 % of Cmp 1a and 51 % of Cmp 1a,43 % of Cmp 1a and 86 % of Cmp 1a and 38 % of Cmp 1a and 21 % of Cmp 1a,8.56 % of Cmp 1a and 40 % of Cmp 1a and 9.49 % of Cmp 1a and -0.9 % of Cmp 1a,-2.32 % of Cmp 1a and 12 % of Cmp 1a and 4.69 % of Cmp 1a and 1.79 % of Cmp 1a,3 % of Cmp 1a (2×) and -4 % of Cmp 1a and 10 % of Cmp 1a,8 % of Cmp 1a and -0.386 % of Cmp 1a and 18 % of Cmp 1a and 3.4 % of Cmp 1a,15 % of Cmp 1a and -0.802 % of Cmp 1a and 16 % of Cmp 1a and 14 % of Cmp 1a,6.66 % of Cmp 1a and 2 % of Cmp 1a and 14 % of Cmp 1a and 12 % of Cmp 1a,1.77 % of Cmp 1a and 8 % of Cmp 1a and 11 % of Cmp 1a and 6 % of Cmp 1a,"fold decrease in potency relative to parent compound 1 (GPR139 [3]; Ca2+ mobilization EC50): 3- to 25 fold; EC50 (GPR139 [3]; Supplementary Table 2, mean ± SEM, read-out: pEC50 Ca2+ (converted)): 3.98 µM"

# Reference: paper PMC12775434, “Ultra-large virtual screening unveils potent agonists of the neuromodulatory orphan receptor GPR139” (Nature Communications, 2025)
